US20230093073A1, “METHODS AND COMPOSITIONS FOR COMMUNITY-BASED SCREENING OF POLYMICROBIAL INFECTIONS” (REGENTS OF THE UNIVERSITY OF MINNESOTA, priority 2020, published 2023)

How the values were obtained:
[1] = test system: P. aeruginosa and anaerobic bacteria capable of degrading mucins; conditions: cited from earlier work
[2] = test system: anaerobic mucin-degrading bacteria; assay: Anaerobic antibiotic susceptibility testing (MIC) of enrichment cultures from CF sputum in minimal mucin medium; format: cell-based; conditions: MMM, 37° C., 72 h
Procedure: (§1) To further test this idea under clinically relevant conditions, sputum was collected from adult CF patients and isolated P. aeruginosa from each sample (FIG. 1B). Using a panel of widely used CF antibiotics (tobramycin, aztreonam, levofloxacin, piperacillin-tazobactam) and others lacking conventional activity against P. aeruginosa (trimethoprim-sulfamethoxazole, metronidazole), MICs for each isolate were determined under nutrient-rich conditions (akin to standard AST procedures). Concurrently, enrichment culturing was performed to isolate anaerobic mucin-degrading bacteria from each sample (10) and antibiotic MICs were similarly determined. Finally, small aliquots of remaining sputa were diluted in buffer and split between culture tubes containing mucin as the sole carbon source, 1% agarose, and one of the antibiotics listed above. Using these cultures in which P. aeruginosa and anaerobic mucin-degraders were co-dependent on mucin utilization, how co-operative growth affected antibiotic sensitivity relative to independent culture was interrogated.
Anaerobic enrichment. […]
Antibiotic susceptibility testing. […] Plates were resuspended by pipetting and read spectrophotometrically at OD600 using a BioTek Synergy plate reader. MICs were determined based on the antibiotic concentration required to achieve a 90% reduction in culture density relative to antibiotic-free controls.

[3] = test system: sputum bacterial communities; assay: Mucin co-culture of CF sputum bacterial communities, community growth by 16S rRNA gene qPCR; format: cell-based; conditions: for whether presence of at least one antibiotic-susceptible population predicts community failure in co-culture: sputum co-culture vs individual MICs of P. aeruginosa and anaerobes; for effect on co-operative community growth (16S rRNA gene copies relative to untreated control, FIG. 2C): sputum co-culture, mucin sole carbon source, 1% agarose, 72 h, one fixed concentration per antibiotic
Procedure: as §1
It was assessed whether co-operative community growth (see FIG. 1A) would affect antibiotic susceptibility. Specifically, we hypothesized that the sensitivity of the overall sputum bacterial community would be set by the least tolerant among P. aeruginosa and anaerobic subpopulations. To test this hypothesis, total 16S rRNA gene copy number was used to quantify community growth in response to each antibiotic relative to untreated controls (FIG. 2C).
Co-culture. Under anaerobic conditions, 200 μL of homogenized sputum was placed into one of eight tubes to which a pre-determined concentration of each antibiotic was added (aztreonam, 100 μg/mL; doxycycline, 6.5 μg/mL; levofloxacin, 6.5 μg/mL; metronidazole, 3.5 μg/mL; piperacillin/tazobactam, 6.5 μg/mL; tobramycin, 500 μg/mL; trimethoprim/sulfamethoxazole, 3.5 μg/mL). […] 200 μL of molten 2% low melting point agarose in PBS was added to each tube and homogenized by pipetting. Each mixture was then added to 0.5 mL Pyrex culture tubes forming a gel upon cooling. Upon removal from the anaerobic chamber, tubes were incubated at 37° C. for 72 h and frozen at −80° C.
DNA extraction. Agar plugs were removed from the culture tubes, transferred to a Matrix E Lysing Tubes (MP Biomedicals) and two volumes of lysis buffer were added. Tubes were vortexed on a bead beater for 2×30 s, followed by centrifugation at 9,500×g for 1 min. Supernatant was transferred to a new tube, incubated at 75° C. for 10 min and returned to room temperature. Lysozyme and RNAse A were then added to final concentrations of 0.2 mg/mL and 50 μg/mL, respectively, and incubated for 1 h at 37° C. […], of 10% SDS and proteinase K (2 mg/mL) were added and incubated overnight at 55° C.
DNA was extracted by adding one volume of phenol:chloroform:iosoamyl alcohol (25:24:1) and vortexing to emulsify. Samples were centrifuged at 21,000×g for 20 min and the upper aqueous layer transferred to a new tube. One volume of chloroform:IAA was then added followed by centrifugation at 21,000×g for 15 min. The upper layer was transferred to a new tube. 3M sodium acetate (pH 5.2) was added and mixed gently, followed by the addition of 1 volume of isopropanol and 3 μL GlycoBlue. Samples were centrifuged for 20 min at 21,000×g and supernatant removed. Pellets were washed using 80% ethanol, air dried for ˜30 min and resuspended in 10 mM Tris (pH 8) prior to storage at −80° C.
qPCR. Community growth was estimated by quantifying 16S rRNA gene copies from co-culture DNA.

P. aeruginosa = assay: Antibiotic susceptibility testing (MIC) of P. aeruginosa isolates from CF sputum in LB; format: cell-based, Pseudomonas aeruginosa; conditions: isolates from adult CF sputum, nutrient-rich LB, aerobic, 37° C., 24 h
Procedure: as §1
Pseudomonas aeruginosa isolation. 100 μL of sputum was streaked onto Pseudomonas isolation agar and incubated at 37° C. for 72 hours. A single isolate from each sample was screened by PCR to confirm identity and stored in 30% glycerol at −80° C.
Antibiotic susceptibility testing. For anaerobic AST, 5 μL of enrichment culture was added to each well of microtiter plate containing MMM supplemented with gradients of seven antibiotics (aztreonam 0-500 μg/mL; doxycycline, 0-25 μg/mL; levofloxacin, 0-25 μg/mL; metronidazole, 0-25 μg/mL; piperacillin/tazobactam, 0-25 μg/mL; tobramycin, 0-500 μg/mL; trimethoprim/sulfamethoxazole, 0-25 μg/mL). Plates were wrapped in parafilm and incubated anaerobically at 37° C. for 72 h. For P. aeruginosa, isolates were grown in lysogeny broth (LB) to an OD600 of 0.5. 5 μL was then added to a similar plate containing LB as the base medium and incubated aerobically at 37° C. for 24 h. Plates were resuspended by pipetting and read spectrophotometrically at OD600 using a BioTek Synergy plate reader. MICs were determined based on the antibiotic concentration required to achieve a 90% reduction in culture density relative to antibiotic-free controls.

Molecule: CC1(C)S[C@@H]2[C@H](NC(=O)[C@H](N)c3ccccc3)C(=O)N2[C@H]1C(=O)O [ampicillin]
- P. aeruginosa growth in co-culture with mucin-degrading anaerobes ([1]; co-culture on mucins as sole carbon source, inhibition of anaerobic subpopulation): constrained P. aeruginosa growth
- resistance of P. aeruginosa determined by standard AST ([1]; standard AST, monoculture): high intrinsic resistance

Molecule: C[C@H]1[C@H](NC(=O)/C(=N\OC(C)(C)C(=O)O)c2csc(N)n2)C(=O)N1S(=O)(=O)O [aztreonam]
- efficacy against anaerobic enrichments (MICs, FIG. 2B) [2]: variable efficacy
- growth of two aztreonam-resistant P. aeruginosa isolates in co-culture ([3]; co-culture with aztreonam-susceptible anaerobic mutualists, aztreonam 100 μg/mL): restricted in co-culture
- whether presence of at least one antibiotic-susceptible population predicts community failure in co-culture [3]: largely predictive of community failure
- efficacy against P. aeruginosa isolates (MICs, FIG. 2A) (P. aeruginosa): some isolates were resistant

Molecule: Cc1ncc([N+](=O)[O-])n1CCO [metronidazole]
- sputum community growth, patient 5 ([3]; patient 5, both subpopulations independently resistant, metronidazole 3.5 μg/mL): robust
- effect on co-operative community growth (16S rRNA gene copies relative to untreated control, FIG. 2C) [3]: striking effect on co-operative cultures
- efficacy against P. aeruginosa isolates (MICs, FIG. 2A) (P. aeruginosa): ineffective

Molecule: NC[C@H]1O[C@H](O[C@H]2[C@H](O)[C@@H](O[C@H]3O[C@H](CO)[C@@H](O)[C@H](N)[C@H]3O)[C@H](N)C[C@@H]2N)[C@H](N)C[C@@H]1O [tobramycin]
- efficacy against anaerobic enrichments (MICs, FIG. 2B) [2]: all anaerobic enrichments demonstrated resistance
- effect on co-operative community growth (16S rRNA gene copies relative to untreated control, FIG. 2C) [3]: striking effect on co-operative cultures
- efficacy against P. aeruginosa isolates (MICs, FIG. 2A) (P. aeruginosa): broadly effective

Molecule: piperacillin-tazobactam
- whether presence of at least one antibiotic-susceptible population predicts community failure in co-culture [3]: largely predictive of community failure
- efficacy against P. aeruginosa isolates (MICs, FIG. 2A) (P. aeruginosa): some isolates were resistant

Molecule: trimethoprim-sulfamethoxazole
- community growth, patients 3 and 4 ([3]; patients 3 and 4, antibiotic predicted ineffective from individual MICs, T/S 3.5 μg/mL): surprisingly inhibited
- whether presence of at least one antibiotic-susceptible population predicts community failure in co-culture [3]: largely predictive of community failure
- effect on co-operative community growth (16S rRNA gene copies relative to untreated control, FIG. 2C) [3]: variable effects
- efficacy against P. aeruginosa isolates (MICs, FIG. 2A) (P. aeruginosa): some isolates were resistant
